System: NOMO1
Assay: cell viability relative to DMSO control; higher = less cytotoxic
Settings: 48 h
Outline: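 Library compounds in DMSO were pin-dosed in an 11-point threefold series (47 μM to 0.79 nM) onto leukemia cells in 1536-well plates (5 μl). Plates held 500 cells/well of NOMO1 or SEM or 1000 cells/well of P12-Ichikawa, each adapted for at least four passages in each medium. Luminescence was read with CellTiter-Glo One after 48 h at 37°C. Viability means the per-plate percentage relative to DMSO wells, using cell-free wells as background.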

[1] = HPLM + 10% dialyzed FBS, 0.000781 µM
[2] = HPLM + 10% dialyzed FBS, 0.00234 µM
[3] = HPLM + 10% dialyzed FBS, 0.00702 µM
[4] = HPLM + 10% dialyzed FBS, 0.0211 µM
[5] = HPLM + 10% dialyzed FBS, 0.0632 µM
[6] = HPLM + 10% dialyzed FBS, 0.19 µM
[7] = HPLM + 10% dialyzed FBS, 0.569 µM
[8] = HPLM + 10% dialyzed FBS, 1.71 µM
[9] = HPLM + 10% dialyzed FBS, 5.12 µM
[10] = HPLM + 10% dialyzed FBS, 15.4 µM
[11] = HPLM + 10% dialyzed FBS, 46.1 µM
[12] = RPMI 5 mM glucose + 10% FBS, 0.000781 µM
[13] = RPMI 5 mM glucose + 10% FBS, 0.00234 µM
[14] = RPMI 5 mM glucose + 10% FBS, 0.00702 µM
[15] = RPMI 5 mM glucose + 10% FBS, 0.0211 µM
[16] = RPMI 5 mM glucose + 10% FBS, 0.0632 µM
[17] = RPMI 5 mM glucose + 10% FBS, 0.19 µM
[18] = RPMI 5 mM glucose + 10% FBS, 0.569 µM
[19] = RPMI 5 mM glucose + 10% FBS, 1.71 µM
[20] = RPMI 5 mM glucose + 10% FBS, 5.12 µM
[21] = RPMI 5 mM glucose + 10% FBS, 15.4 µM
[22] = RPMI 5 mM glucose + 10% FBS, 46.1 µM
[23] = RPMI 5 mM glucose + 10% dialyzed FBS, 0.000781 µM
[24] = RPMI 5 mM glucose + 10% dialyzed FBS, 0.00234 µM
[25] = RPMI 5 mM glucose + 10% dialyzed FBS, 0.00702 µM
[26] = RPMI 5 mM glucose + 10% dialyzed FBS, 0.0211 µM
[27] = RPMI 5 mM glucose + 10% dialyzed FBS, 0.0632 µM
[28] = RPMI 5 mM glucose + 10% dialyzed FBS, 0.19 µM
[29] = RPMI 5 mM glucose + 10% dialyzed FBS, 0.569 µM
[30] = RPMI 5 mM glucose + 10% dialyzed FBS, 1.71 µM
[31] = RPMI 5 mM glucose + 10% dialyzed FBS, 5.12 µM
[32] = RPMI 5 mM glucose + 10% dialyzed FBS, 15.4 µM
[33] = RPMI 5 mM glucose + 10% dialyzed FBS, 46.1 µM

## CCOCC(O)COc1ccc(NC(=O)CC[S+](C)C)cc1 (configuration not stated)
[1]
  cell viability: 91.1%
[2]
  cell viability: 84.9%
[3]
  cell viability: 106%
[4]
  cell viability: 98.4%
[5]
  cell viability: 93.1%
[6]
  cell viability: 92.4%
[7]
  cell viability: 110%
[8]
  cell viability: 107%
[9]
  cell viability: 97%
[10]
  cell viability: 107%
[11]
  cell viability: 98.5%
[12]
  cell viability: 77.9%
[13]
  cell viability: 87.1%
[14]
  cell viability: 86.7%
[15]
  cell viability: 86.7%
[16]
  cell viability: 87.3%
[17]
  cell viability: 82.1%
[18]
  cell viability: 89.7%
[19]
  cell viability: 80.8%
[20]
  cell viability: 91%
[21]
  cell viability: 94.3%
[22]
  cell viability: 84.2%
[23]
  cell viability: 82.1%
[24]
  cell viability: 81.8%
[25]
  cell viability: 78.1%
[26]
  cell viability: 96.5%
[27]
  cell viability: 90.6%
[28]
  cell viability: 90.7%
[29]
  cell viability: 86.3%
[30]
  cell viability: 84.4%
[31]
  cell viability: 95.3%
[32]
  cell viability: 80.1%
[33]
  cell viability: 85.9%

## C1COC(NC(C2CC2)C2CC2)=N1
[1]
  cell viability: 73.1%
[2]
  cell viability: 94%
[3]
  cell viability: 93%
[4]
  cell viability: 90.6%
[5]
  cell viability: 92.3%
[6]
  cell viability: 83.5%
[7]
  cell viability: 97.3%
[8]
  cell viability: 95.5%
[9]
  cell viability: 94.8%
[10]
  cell viability: 96.3%
[11]
  cell viability: 64.8%
[12]
  cell viability: 75.3%
[13]
  cell viability: 92.5%
[14]
  cell viability: 79.2%
[15]
  cell viability: 87.6%
[16]
  cell viability: 89.7%
[17]
  cell viability: 90.8%
[18]
  cell viability: 89.5%
[19]
  cell viability: 80.1%
[20]
  cell viability: 90.7%
[21]
  cell viability: 91.1%
[22]
  cell viability: 84.5%
[23]
  cell viability: 79.2%
[24]
  cell viability: 86.1%
[25]
  cell viability: 83.9%
[26]
  cell viability: 85%
[27]
  cell viability: 86.4%
[28]
  cell viability: 94.1%
[29]
  cell viability: 97.6%
[30]
  cell viability: 81.4%
[31]
  cell viability: 82.7%
[32]
  cell viability: 89.2%
[33]
  cell viability: 73%

## CC(S)C(=O)NCC(=O)O (configuration not stated)
[1]
  cell viability: 116%
[2]
  cell viability: 109%
[3]
  cell viability: 110%
[4]
  cell viability: 116%
[5]
  cell viability: 116%
[6]
  cell viability: 123%
[7]
  cell viability: 108%
[8]
  cell viability: 114%
[9]
  cell viability: 111%
[10]
  cell viability: 97.9%
[11]
  cell viability: 89.4%
[12]
  cell viability: 120%
[13]
  cell viability: 112%
[14]
  cell viability: 109%
[15]
  cell viability: 107%
[16]
  cell viability: 107%
[17]
  cell viability: 111%
[18]
  cell viability: 107%
[19]
  cell viability: 110%
[20]
  cell viability: 114%
[21]
  cell viability: 116%
[22]
  cell viability: 107%
[23]
  cell viability: 105%
[24]
  cell viability: 113%
[25]
  cell viability: 113%
[26]
  cell viability: 107%
[27]
  cell viability: 107%
[28]
  cell viability: 105%
[29]
  cell viability: 107%
[30]
  cell viability: 112%
[31]
  cell viability: 105%
[32]
  cell viability: 96.5%
[33]
  cell viability: 112%

## CCCCc1nc2cc(/C=C/C(=O)NO)ccc2n1CCN(CC)CC
[1]
  cell viability: 109%
[2]
  cell viability: 112%
[3]
  cell viability: 94.2%
[4]
  cell viability: 106%
[5]
  cell viability: 86.9%
[6]
  cell viability: 99.7%
[7]
  cell viability: 85.1%
[8]
  cell viability: 84.8%
[9]
  cell viability: 39.3%
[10]
  cell viability: 4.23%
[11]
  cell viability: 6.15%
[12]
  cell viability: 80.5%
[13]
  cell viability: 83.2%
[14]
  cell viability: 83.2%
[15]
  cell viability: 87.1%
[16]
  cell viability: 94.2%
[17]
  cell viability: 89.3%
[18]
  cell viability: 86.8%
[19]
  cell viability: 85.9%
[20]
  cell viability: 28.6%
[21]
  cell viability: 4.31%
[22]
  cell viability: 4.51%
[23]
  cell viability: 74.9%
[24]
  cell viability: 98.4%
[25]
  cell viability: 86.4%
[26]
  cell viability: 91.5%
[27]
  cell viability: 94.3%
[28]
  cell viability: 97.2%
[29]
  cell viability: 86.2%
[30]
  cell viability: 79.3%
[31]
  cell viability: 57.9%
[32]
  cell viability: 5.08%
[33]
  cell viability: 4.97%

From the supplement of paper PMC11451515
